Laboratory results reported in patent US7553867B2, “Furan or thiophene derivative and medicinal use thereof” (Takeda Pharmaceutical Company Limited, priority 2002, dated 2009).

For Cc1oc(-c2ccc(C(F)(F)F)cc2)cc1COc1ccc(C(C)(C)C(=O)O)cc1 [Example 6(86), 2-Methyl-2-[4-({2-methyl-5-[4-(trifluoromethyl)phenyl]-3-furyl}methoxy)phenyl]propionic acid], the melting point was 105 to 107 °C.
Compound Cc1oc(-c2ccc(F)cc2)cc1COc1cccc(CCCC(=O)O)c1 [Example 6(19), 4-(3-{[5-(4-Fluorophenyl)-2-methyl-3-furyl]methoxy}phenyl)butanoic acid] has a melting point of 98 to 99 °C.
Cc1oc(-c2ccc(Cl)cc2)cc1COc1cccc(CSC(C)(C)C(=O)O)c1 [Example 6(111), 2-[(3-{[5-(4-Chlorophenyl)-2-methyl-3-furyl]methoxy}benzyl)thio]-2-methylpropionic acid] gave a melting point of 143 to 144 °C.
For Cc1oc(-c2ccc(C(F)(F)F)cc2)cc1COc1cccc(-c2cccc(C(=O)O)c2)c1 [Example 6(125), 3′-({2-Methyl-5-[4-(trifluoromethyl)phenyl]-3-furyl}methoxy)-1,1′-biphenyl-3-carboxylic acid], the melting point was 178 to 179 °C.
Cc1oc(-c2ccc(C(F)(F)F)cc2)cc1COc1cccc(C(C)SC(C)(C)C(=O)O)c1 (stereo not shown) [Example 6(66), 2-Methyl-2-({1-[3-({2-methyl-5-[4-(trifluoromethyl)phenyl]-3-furyl}methoxy)phenyl]ethyl}thio)propionic acid] gave a melting point of 75 to 77 °C.
Work on Cc1oc(-c2ccc(C(F)(F)F)cc2)cc1COc1ccc2oc(CC(=O)O)cc2c1 [Example 6(90), [5-({2-Methyl-5-[4-(trifluoromethyl)phenyl]-3-furyl}methoxy)-1-benzofuran-2-yl]acetic acid] yielded a melting point of 140 to 142 °C.
Compound CCOC(=O)C(C)(C)Oc1ccc(/C=C\c2cc(-c3ccc(C(F)(F)F)cc3)oc2C)cc1 [Example 21-b, Ethyl 2-methyl-2-[4-((Z)-2-{2-methyl-5-[4-(trifluoromethyl)phenyl]-3-furyl}ethenyl)phenoxy]propionate] has a melting point of 84 to 85 °C.
Work on Cc1nc(CCc2cc(-c3ccc(C(F)(F)F)cc3)oc2C)oc1CC(=O)O [Example 13(6), [4-Methyl-2-(2-{2-methyl-5-[4-(trifluoromethyl)phenyl]-3-furyl}ethyl)-1,3-oxazol-5-yl]acetic acid] yielded a melting point of 120 to 121 °C.
For Cc1nc(SCCc2cc(-c3ccc(F)cc3)oc2C)sc1CC(=O)O [Example 6(38), [2-({2-[5-(4-Fluorophenyl)-2-methyl-3-furyl]ethyl}thio)-4-methyl-1,3-thiazol-5-yl]acetic acid], the melting point was 124 to 126 °C.
With Cc1oc(-c2ccc(C(F)(F)F)cc2)cc1COc1ccc(CCC(=O)O)cc1 [Example 6(123), 3-[4-({2-Methyl-5-[4-(trifluoromethyl)phenyl]-3-furyl}methoxy)phenyl]propionic acid] the melting point was 182 to 183 °C.
For O=C(O)CSCc1cccc(NC(=O)c2ccc(-c3ccc(Cl)cc3)o2)c1 [Example 2(3), [(3-{[5-(4-Chlorophenyl)-2-furoyl]amino}benzyl]thio]acetic acid], the melting point was 173 to 174 °C.
For Cc1oc(-c2ccccc2C(F)(F)F)cc1COc1ccc(SC(C)(C)C(=O)O)cc1 [Example 6(117), 2-Methyl-2-{[4-({2-methyl-5-[2-(trifluoromethyl)phenyl]-3-furyl}methoxy)phenyl]thio}propionic acid], the melting point was 115 to 116 °C.
COc1cccc(-c2cc(CSc3nc(C)c(CC(=O)O)s3)c(C)o2)c1 [Example 6(53), [2-({[5-(3-Methoxyphenyl)-2-methyl-3-furyl]methyl}thio)-4-methyl-1,3-thiazol-5-yl]acetic acid] showed a melting point of 174 to 176 °C.
For Cc1oc(-c2ccc(C(F)(F)F)cc2)cc1/C=C/c1ccc(OC(C)(C)C(=O)O)cc1 [Example 22(1), 2-Methyl-2-[4-((E)-2-{2-methyl-5-[4-(trifluoromethyl)phenyl]-3-furyl}ethenyl)phenoxy]propionic acid], the melting point was 140 to 141 °C.
Cc1oc(-c2ccc(C(F)(F)F)cc2)cc1CCOc1cccc(CC(=O)O)c1 [Example 6(83), [3-(2-{2-Methyl-5-[4-(trifluoromethyl)phenyl]-3-furyl}ethoxy)phenyl]acetic acid] gave a melting point of 92 to 94 °C.
CCc1oc(-c2ccc(C(F)(F)F)cc2)cc1CCCOc1ccc(OC)c(CC(=O)O)c1 [Example 6(39), [5-(3-{2-Ethyl-5-[4-(trifluoromethyl)phenyl]-3-furyl}propoxy)-2-methoxyphenyl]acetic acid] showed a melting point of 138 to 139 °C.
COc1ccc(CCC(=O)O)cc1OCc1cc(-c2ccc(C(F)(F)F)cc2)oc1C [Example 6(82), 3-[4-Methoxy-3-({2-methyl-5-[4-(trifluoromethyl)phenyl]-3-furyl}methoxy)phenyl]propionic acid] showed a melting point of 128 to 129 °C.
With Cc1oc(-c2ccc(C(F)(F)F)cc2)cc1CCCOc1ccc(SC(C)(C)C(=O)O)cc1 [Example 6(122), 2-Methyl-2-{[4-(3-{2-methyl-5-[4-(trifluoromethyl)phenyl]-3-furyl}propoxy)phenyl]thio}propionic acid] the melting point was 127 to 128 °C.
CCCCc1oc(-c2ccc(C(F)(F)F)cc2)cc1CCC(=O)Nc1cccc(CSCC(=O)O)c1 [Example 2(5), ({3-[(3-{2-Butyl-5-[4-(trifluoromethyl)phenyl]-3-furyl}propionyl)amino)benzyl}thio) acetic acid] gave a melting point of 137 to 138 °C.
In the case of Cc1cc(OCCc2cc(-c3ccc(C(F)(F)F)cc3)oc2C)ccc1CCC(=O)O [Example 6(22), 3-[2-Methyl-4-(2-{2-methyl-5-[4-(trifluoromethyl)phenyl]-3-furyl}ethoxy)phenyl]propionic acid], the melting point is reported as 118 to 120 °C.
Compound CCc1oc(-c2ccc(C(F)(F)F)cc2)cc1CCCOc1ccc(CC(=O)O)cc1 [Example 6(27), [4-(3-{2-Ethyl-5-[4-(trifluoromethyl)phenyl]-3-furyl}propoxy)phenyl]acetic acid] has a melting point of 121 to 122 °C.
With Cc1oc(-c2cccc(F)c2)cc1COc1cccc(CSC(C)(C)C(=O)O)c1 [Example 6(112), 2-[(3-{[5-(3-Fluorophenyl)-2-methyl-3-furyl]methoxy}benzyl)thio]-2-methylpropionic acid] the melting point was 116 to 117 °C.
For CCc1oc(-c2ccc(C(F)(F)F)cc2)cc1CCCOc1ccc(F)c(CC(=O)O)c1 [Example 6(47), [5-(3-{2-Ethyl-5-[4-(trifluoromethyl)phenyl]-3-furyl}propoxy)-2-fluorophenyl]acetic acid], the melting point was 128 to 129 °C.
In the case of Cc1oc(-c2ccc(C(F)(F)F)cc2)cc1COc1ccc(CC(=O)O)cc1 [Example 6(9), [4-({2-Methyl-5-[4-(trifluoromethyl)phenyl]-3-furyl}methoxy)phenyl]acetic acid], the melting point is reported as 147 to 149 °C.
In the case of Cc1oc(-c2ccc(C(F)(F)F)cc2)cc1COc1ccc2sc(CSC(C)(C)C(=O)O)cc2c1 [Example 6(107), 2-Methyl-2-({[5-({2-methyl-5-[4-(trifluoromethyl)phenyl]-3-furyl}methoxy)-1-benzothien-2-yl]methyl}thio)propionic acid], the melting point is reported as 158 to 159 °C.
With Cc1cc(-c2ccc(C(F)(F)F)cc2)oc1COc1ccc(CC(C)(C)C(=O)O)cc1 [Example 20(1), 2,2-Dimethyl-3-[4-({3-methyl-5-[4-(trifluoromethyl)phenyl]-2-furyl}methoxy)phenyl]propionic acid] the melting point was 124 to 126 °C.
Compound Cc1oc(-c2cccc(C(F)(F)F)c2)cc1COc1cccc(CSC(C)(C)C(=O)O)c1 [Example 6(59), 2-Methyl-2-{[3-({2-methyl-5-[3-(trifluoromethyl)phenyl]-3-furyl}methoxy)benzyl]thio}propionic acid] has a melting point of 81 to 82 °C.
In the case of Cc1oc(-c2ccc(C(F)(F)F)cc2)cc1COc1cccc(OCC(=O)O)c1 [Example 6(87), [3-({2-Methyl-5-[4-(trifluoromethyl)phenyl]-3-furyl}methoxy)phenoxy]acetic acid], the melting point is reported as 118 to 119 °C.
Compound Cc1oc(-c2ccc(C(F)(F)F)cc2)cc1COc1cccc(CSC(C)(C)C(=O)O)c1 [Example 6(109), 2-Methyl-2-{[3-({2-methyl-5-[4-(trifluoromethyl)phenyl]-3-furyl}methoxy)benzyl]thio}propionic acid] has a melting point of 148 to 149 °C.
For Cc1oc(-c2cccc(C(F)(F)F)c2)cc1COc1ccc(OC(C)(C)C(=O)O)cc1 [Example 6(63), 2-Methyl-2-[4-({2-methyl-5-[3-(trifluoromethyl)phenyl]-3-furyl}methoxy)phenoxy]propionic acid], the melting point was 83 to 84 °C.
For Cc1oc(-c2ccc(C(F)(F)F)cc2)cc1CCCOc1ccc(OCC(=O)O)cc1 [Example 6(25), [4-(3-{2-Methyl-5-[4-(trifluoromethyl)phenyl]-3-furyl}propoxy)phenoxy]acetic acid], the melting point was 134 to 135 °C.
Cc1cc(OCc2cc(-c3ccc(C(F)(F)F)cc3)oc2C)ccc1CC(C)C(=O)O (stereo not shown) [Example 6(76), 2-Methyl-3-[2-methyl-4-({2-methyl-5-[4-(trifluoromethyl)phenyl]-3-furyl}methoxy)phenyl]propionic acid] showed a melting point of 96 to 97 °C.
In the case of CCc1oc(-c2ccc(C(F)(F)F)cc2)cc1CCCOc1cc(CC(=O)O)ccc1F [Example 6(46), [3-(3-{2-Ethyl-5-[4-(trifluoromethyl)phenyl]-3-furyl}propoxy)-4-fluorophenyl]acetic acid], the melting point is reported as 91 to 93 °C.
Cc1oc(-c2ccc(OC(F)(F)F)cc2)cc1C(=O)Nc1cccc(CSCC(=O)O)c1 [Example 4(2)] gave a melting point of 200 to 202 °C.
In the case of Cc1oc(-c2ccc(C(F)(F)F)cc2)cc1COc1cccc(COC(C)(C)C(=O)O)c1 [Example 6(70), 2-Methyl-2-{[3-({2-methyl-5-[4-(trifluoromethyl)phenyl]-3-furyl}methoxy)benzyl]oxy}propionic acid], the melting point is reported as 95 to 96 °C.
Cc1oc(-c2ccc(C(F)(F)F)cc2)cc1CCc1ncc(CC(=O)O)o1 [Example 13(5), [2-(2-{2-Methyl-5-[4-(trifluoromethyl)phenyl]-3-furyl}ethyl)-1,3-oxazol-5-yl]acetic acid] showed a melting point of 143 to 144 °C.
In the case of Cc1ccc(-c2cc(COc3cccc(CSC(C)(C)C(=O)O)c3)c(C)o2)cc1 [Example 6(120), 2-Methyl-2-[(3-{[2-methyl-5-(4-methylphenyl)-3-furyl]methoxy}benzyl)thio]propionic acid], the melting point is reported as 121 to 122 °C.
